Source: ChEMBL document CHEMBL1151651, “Antimicrobially active alkaloids from Tabernaemontana chippii” (1985)
≈ marks a conversion by molar mass, not a printed value.

Key:
Assay type in all cases: functional
Bacillus subtilis [1] = assay: Antimicrobial activity against Bacillus subtilis using pH 4.0 buffer as solvent by agar diffusion test
Pseudomonas aeruginosa [2] = assay: Antimicrobial activity against Pseudomonas aeruginosa using pH 4.0 buffer as solvent by agar diffusion test
Staphylococcus aureus [3] = assay: Antimicrobial activity against Staphylococcus aureus using pH 4.0 buffer as solvent by agar diffusion test
Escherichia coli [4] = assay: Antimicrobial activity against Escherichia coli using pH 4.0 buffer as solvent by agar diffusion test
Pseudomonas aeruginosa [5] = assay: Antimicrobial activity against Pseudomonas aeruginosa using distilled water as solvent by agar diffusion test
Bacillus subtilis [6] = assay: Antimicrobial activity against Bacillus subtilis using distilled water as solvent by agar diffusion test
Staphylococcus aureus [7] = assay: Antimicrobial activity against Staphylococcus aureus using distilled water as solvent by agar diffusion test
Escherichia coli [8] = assay: Antimicrobial activity against Escherichia coli using distilled water as solvent by agar diffusion test

`C=CC1CN(C)[C@H]2Cc3c([nH]c4ccccc34)[C@H](c3cc4c5c([nH]c4cc3OC)[C@]3(C(=O)OC)C[C@@H]4C[C@H](CC)[C@@H]3N(CC5)C4O)C[C@H]1C2C(=O)OC` (some centres undefined) gave an MIC (Bacillus subtilis [1]) of 8 µg/mL (≈ 11.1 µM), an MIC (Pseudomonas aeruginosa [2]) of 65 µg/mL (≈ 90.2 µM) and an MIC (Staphylococcus aureus [3]) of 65 µg/mL (≈ 90.2 µM). For the same compound, the MIC (Escherichia coli [4]) was 170 µg/mL (≈ 236 µM).

Compound `C=CC1CN(C)[C@H]2Cc3c([nH]c4ccccc34)[C@H](c3cc4c5c([nH]c4cc3OC)[C@]3(C(=O)OC)C[C@@H]4C[C@H](CC)[C@@H]3N(CC5)C4)C[C@H]1C2C(=O)OC` (some centres undefined) [CONODURAMINE] has an MIC (Bacillus subtilis [1]) of 15 µg/mL (≈ 21.3 µM), an MIC (Pseudomonas aeruginosa [2]) of 400 µg/mL (≈ 567 µM) and an MIC (Staphylococcus aureus [3]) of 35 µg/mL (≈ 49.7 µM). The MIC (Escherichia coli [4]) was 110 µg/mL (≈ 156 µM).

In the case of `CN[C@@H]1[C@H](O[C@H]2[C@H](O[C@H]3[C@H](O)[C@@H](O)[C@H](N=C(N)N)[C@@H](O)[C@@H]3N=C(N)N)O[C@@H](C)[C@]2(O)C=O)O[C@@H](CO)[C@H](O)[C@H]1O` [STREPTOMYCIN], the MIC (Bacillus subtilis [1]) is reported as 1 µg/mL (≈ 1.72 µM), the MIC (Pseudomonas aeruginosa [5]) is reported as 12 µg/mL (≈ 20.6 µM) and the MIC (Bacillus subtilis [6]) is reported as 0.2 µg/mL (≈ 0.344 µM). The MIC (Pseudomonas aeruginosa [2]) was 7 µg/mL (≈ 12 µM), the MIC (Staphylococcus aureus [3]) was 5 µg/mL (≈ 8.6 µM) and the MIC (Staphylococcus aureus [7]) was 1 µg/mL (≈ 1.72 µM). The MIC (Escherichia coli [8]) was 0.5 µg/mL (≈ 0.86 µM) and the MIC (Escherichia coli [4]) was 80 µg/mL (≈ 138 µM).

`C=CC1CN(C)[C@@H]2Cc3c([nH]c4ccccc34)[C@@H](/C=C3\c4[nH]c5ccccc5c4CN4CC[C@H]3/C(=C\C)C4)C[C@@H]1C2C(=O)OC` (some centres undefined) [VOBAPARICINE] was tested, and the MIC (Bacillus subtilis [1]) was 50 µg/mL (≈ 83.2 µM) and the MIC (Escherichia coli [4]) was 100 µg/mL (≈ 166 µM).

`C=CC1CN(C)[C@H]2Cc3c([nH]c4ccccc34)[C@H](c3c(OC)ccc4c5c([nH]c34)[C@]3(C(=O)OC)C[C@@H]4C[C@H](CC)[C@@H]3N(CC5)C4O)C[C@H]1C2C(=O)OC` (some centres undefined) gave an MIC (Bacillus subtilis [1]) of 14 µg/mL (≈ 19.4 µM), an MIC (Pseudomonas aeruginosa [2]) of 150 µg/mL (≈ 208 µM) and an MIC (Staphylococcus aureus [3]) of 45 µg/mL (≈ 62.4 µM). It also gave an MIC (Escherichia coli [4]) of 750 µg/mL (≈ 1040 µM).

In the case of `CC[C@H]1C[C@H]2C[C@@]3(C(=O)OC)c4[nH]c5cc(OC)c(OC)cc5c4CCN(C2O)[C@@H]13` (some centres undefined), the MIC (Bacillus subtilis [1]) is reported as 60 µg/mL (≈ 145 µM), the MIC (Pseudomonas aeruginosa [2]) is reported as over 1000 µg/mL and the MIC (Staphylococcus aureus [3]) is reported as 140 µg/mL (≈ 338 µM). It also gave an MIC (Escherichia coli [4]) of over 1000 µg/mL.

Compound `CC[C@H]1C[C@H]2C[C@@]3(C(=O)OC)c4[nH]c5cc(OC)ccc5c4CCN(C2O)[C@@H]13` (some centres undefined) has an MIC (Bacillus subtilis [1]) of 50 µg/mL (≈ 130 µM), an MIC (Pseudomonas aeruginosa [2]) of 300 µg/mL (≈ 780 µM) and an MIC (Staphylococcus aureus [3]) of 500 µg/mL (≈ 1300 µM). It also gave an MIC (Escherichia coli [4]) of 500 µg/mL (≈ 1300 µM).

Work on `C=CC1CN(C)[C@H]2Cc3c([nH]c4ccccc34)[C@H](c3c(OC)ccc4c5c([nH]c34)[C@]3(C(=O)OC)C[C@@H]4C[C@H](CC)[C@@H]3N(CC5)C4)C[C@H]1C2C(=O)OC` (some centres undefined) [CONODURINE] yielded an MIC (Bacillus subtilis [1]) of 4 µg/mL (≈ 5.67 µM), an MIC (Pseudomonas aeruginosa [2]) of 400 µg/mL (≈ 567 µM) and an MIC (Staphylococcus aureus [3]) of 50 µg/mL (≈ 70.9 µM). It also gave an MIC (Escherichia coli [4]) of 70 µg/mL (≈ 99.3 µM).
